Measurements reported in US11976072B2, “Diacylglycerol kinase modulating compounds” (priority 2021, dated 2024).

Legend:
[1] = molecular target: human DGKα (Homo sapiens, UniProt P23743); assay: DGKα Biochemical Activity Assay (ADP-Glo); settings: recombinant DGKα 1 nM, 100 μM ATP, 18:1 DAG/POPS/octylglucoside micelles, 1 hour at 25° C.; geometric mean; read-out: HTBS DGKa 1X ATP KM IC50;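 note: luminescent detection of ADP produced as DGKα phosphorylates DAG to phosphatidic acid, IC50 from four-parameter nonlinear curve fit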
Sequence of human DGKα (P23743 whole entry): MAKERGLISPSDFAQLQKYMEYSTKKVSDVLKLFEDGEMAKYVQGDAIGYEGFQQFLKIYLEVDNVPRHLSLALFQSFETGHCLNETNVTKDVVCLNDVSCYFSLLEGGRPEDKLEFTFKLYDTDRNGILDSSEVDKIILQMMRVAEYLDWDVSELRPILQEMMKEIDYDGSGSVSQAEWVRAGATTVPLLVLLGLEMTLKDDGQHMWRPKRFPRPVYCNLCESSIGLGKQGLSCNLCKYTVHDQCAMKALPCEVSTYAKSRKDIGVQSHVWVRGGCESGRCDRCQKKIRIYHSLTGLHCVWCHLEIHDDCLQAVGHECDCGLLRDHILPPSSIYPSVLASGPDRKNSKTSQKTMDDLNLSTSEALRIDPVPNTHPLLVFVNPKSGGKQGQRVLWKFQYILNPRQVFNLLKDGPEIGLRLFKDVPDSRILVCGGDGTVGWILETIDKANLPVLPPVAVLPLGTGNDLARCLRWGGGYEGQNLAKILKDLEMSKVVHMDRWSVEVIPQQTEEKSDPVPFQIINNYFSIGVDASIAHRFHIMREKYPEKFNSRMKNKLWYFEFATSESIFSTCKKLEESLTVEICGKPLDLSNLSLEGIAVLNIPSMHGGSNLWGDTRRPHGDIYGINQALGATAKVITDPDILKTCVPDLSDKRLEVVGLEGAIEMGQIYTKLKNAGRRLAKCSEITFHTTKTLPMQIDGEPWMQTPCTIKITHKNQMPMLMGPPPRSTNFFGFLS

[2] = system: Jurkat NFκB-luciferase cells; assay: Jurkat NFκB-Luciferase Assay; type: cell-based; settings: Homo sapiens; Jurkat NFκB-luciferase cells activated with anti-CD3 antibody (OKT3), 2.5 hrs at 37° C.; geometric mean; read-out: DGK NFKb Luciferase EC50
Outline: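 Jurkat NFκB-luciferase reporter cells at 1 million cells/ml in RPMI with 10% FBS were added to antibody-coated, compound-containing wells. Luciferase activity read by One-Glo Ex luminescence 7 minutes after reagent addition.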

SMILES	IC50 [1]	EC50 [2]
Cc1nnc2nc(N3CCCc4c(C#CC(C)(C)C(=O)O)cccc43)c3c(F)cccc3n12 [Example 73, 4-(1-(6-fluoro-1-methyl-[1,2,4]triazolo[4,3-a]quinazolin-5-yl)-1,2,3,4-tetrahydroquinolin-5-yl)-2,2-dimethylbut-3-ynoic Acid]	61.3 nM	10.8 nM
COc1ccc(C#Cc2cc(N(CC(F)F)c3nc4nnc(C)n4c4cccc(F)c34)ccn2)cn1 [Example 74, N-(2,2-difluoroethyl)-6-fluoro-N-(2-((6-methoxypyridin-3-yl)ethynyl)pyridin-4-yl)-1-methyl-[1,2,4]triazolo[4,3-a]quinazolin-5-amine]	6.1 nM	1.95 nM
COc1ccc(C#Cc2nccc3c2CCCN3c2nc3nnc(C)n3c3cccc(F)c23)cn1 [Example 75, 6-fluoro-5-(5-((6-methoxypyridin-3-yl)ethynyl)-3,4-dihydro-1,6-naphthyridin-1(2H)-yl)-1-methyl-[1,2,4]triazolo[4,3-a]quinazoline]	28.9 nM	3.41 nM
Cc1nccn1C(C)(C)C#Cc1cccc2c1CCCN2c1nc2nnc(C)n2c2cccc(F)c12 [Example 76, 6-fluoro-1-methyl-5-(5-(3-methyl-3-(2-methyl-1H-imidazol-1-yl)but-1-yn-1-yl)-3,4-dihydroquinolin-1(2H)-yl)-[1,2,4]triazolo[4,3-a]quinazoline]	13.4 nM	8.01 nM
Cc1nc(C(C)(C)C#Cc2cccc3c2CCCN3c2nc3nnc(C)n3c3cccc(F)c23)oc1C [Example 77, 2-(4-(1-(6-fluoro-1-methyl-[1,2,4]triazolo[4,3-a]quinazolin-5-yl)-1,2,3,4-tetrahydroquinolin-5-yl)-2-methylbut-3-yn-2-yl)-4,5-dimethyloxazole]	15.5 nM	1.94 nM
Cc1nnc2nc(N3CCCc4c(C#CC(C)(C)n5ccnc5)cccc43)c3c(F)cccc3n12 [Example 78, 5-(5-(3-(1H-imidazol-1-yl)-3-methylbut-1-yn-1-yl)-3,4-dihydroquinolin-1(2H)-yl)-6-fluoro-1-methyl-[1,2,4]triazolo[4,3-a]quinazoline]	41.2 nM	7.73 nM
Cc1nnc2nc(N3CCCc4c(C#CC(C)(C)c5ncco5)cccc43)c3c(F)cccc3n12 [Example 79, 2-(4-(1-(6-fluoro-1-methyl-[1,2,4]triazolo[4,3-a]quinazolin-5-yl)-1,2,3,4-tetrahydroquinolin-5-yl)-2-methylbut-3-yn-2-yl)oxazole]	22.6 nM	2.54 nM
Cc1nnc2nc(N(CC(F)F)c3ccnc(C#CC(C)(C)C(F)(F)F)c3F)c3c(F)c(F)ccc3n12 [Example 80, N-(2,2-difluoroethyl)-6,7-difluoro-N-(3-fluoro-2-(4,4,4-trifluoro-3,3-dimethylbut-1-yn-1-yl)pyridin-4-yl)-1-methyl-[1,2,4]triazolo[4,3-a]quinazolin-5-amine]	15.1 nM	2.15 nM
Cc1nnc2nc(N(CC(F)F)c3ccnc(C#CC4CC4)c3)c3c(F)c(F)ccc3n12 [Example 81, N-(2-(cyclopropylethynyl)pyridin-4-yl)-N-(2,2-difluoroethyl)-6,7-difluoro-1-methyl-[1,2,4]triazolo[4,3-a]quinazolin-5-amine]	10.4 nM	30.7 nM
Cc1nnc2nc(N(CC(F)F)c3ccnc(C#CC4CC4)c3)c3c(F)cccc3n12 [Example 82, N-(2-(cyclopropylethynyl)pyridin-4-yl)-N-(2,2-difluoroethyl)-6-fluoro-1-methyl-[1,2,4]triazolo[4,3-a]quinazolin-5-amine]	11.4 nM	10.5 nM
Cc1nnc2nc(N3CCCc4c(C#CC5(C)CC5)cncc43)c3c(F)c(F)ccc3n12 [Example 83, 6,7-difluoro-1-methyl-5-(5-((1-methylcyclopropyl)ethynyl)-3,4-dihydro-1,7-naphthyridin-1(2H)-yl)-[1,2,4]triazolo[4,3-a]quinazoline]	8.49 nM	1.21 nM
Cc1nnc2nc(N(CC(F)F)c3ccnc(C#CC(C)(C)C(F)(F)F)c3)c3c(F)c(F)ccc3n12 [Example 84, N-(2,2-difluoroethyl)-6,7-difluoro-1-methyl-N-(2-(4,4,4-trifluoro-3,3-dimethylbut-1-yn-1-yl)pyridin-4-yl)-[1,2,4]triazolo[4,3-a]quinazolin-5-amine]	5.06 nM	2.44 nM
Cc1nnc2nc(N3CCCc4c3ccnc4C#CC3(C)CC3)c3c(F)c(F)ccc3n12 [Example 85, 6,7-difluoro-1-methyl-5-(5-((1-methylcyclopropyl)ethynyl)-3,4-dihydro-1,6-naphthyridin-1(2H)-yl)-[1,2,4]triazolo[4,3-a]quinazoline]	7.21 nM	2.24 nM
Cc1nnc2nc(N(CC(F)F)c3ccnc(C#CC4CC4)c3)c3cc(F)ccc3n12 [Example 87, N-(2-(cyclopropylethynyl)pyridin-4-yl)-N-(2,2-difluoroethyl)-7-fluoro-1-methyl-[1,2,4]triazolo[4,3-a]quinazolin-5-amine]	3.5 nM	7.57 nM
Cc1nnc2nc(N3CCCc4c(C#CC5(C(F)(F)F)CC5)cncc43)c3c(F)c(F)ccc3n12 [Example 88, 6,7-difluoro-1-methyl-5-(5-((1-(trifluoromethyl)cyclopropyl)ethynyl)-3,4-dihydro-1,7-naphthyridin-1(2H)-yl)-[1,2,4]triazolo[4,3-a]quinazoline]	10.6 nM	1.14 nM
Cc1nnc2nc(N(CC(F)F)c3ccnc(C#CC4(C(F)(F)F)CC4)c3F)c3cc(F)ccc3n12 [Example 89]	5.41 nM	4.61 nM
Cc1nnc2nc(N3CCCc4c(C#CC(C)(C)C(F)(F)F)cncc43)c3c(F)c(F)ccc3n12 [Example 90, 6,7-difluoro-1-methyl-5-(5-(4,4,4-trifluoro-3,3-dimethylbut-1-yn-1-yl)-3,4-dihydro-1,7-naphthyridin-1(2H)-yl)-[1,2,4]triazolo[4,3-a]quinazoline]	29.3 nM	1.88 nM
Cc1nnc2nc(N(CC(F)F)c3ccnc(C#CC4(C)CC4)c3)c3c(F)c(F)ccc3n12 [Example 91, N-(2,2-difluoroethyl)-6,7-difluoro-1-methyl-N-(2-((1-methylcyclopropyl)ethynyl)pyridin-4-yl)-[1,2,4]triazolo[4,3-a]quinazolin-5-amine]	3.43 nM	3.83 nM
Cc1nnc2nc(N(CC(F)F)c3ccnc(C#CC4(C(F)(F)F)CC4)c3)c3c(F)c(F)ccc3n12 [Example 92, N-(2,2-difluoroethyl)-6,7-difluoro-1-methyl-N-(2-((1-(trifluoromethyl)cyclopropyl)ethynyl)pyridin-4-yl)-[1,2,4]triazolo[4,3-a]quinazolin-5-amine]	13.8 nM	5.3 nM
CC(C)(C#Cc1cc(N(CC(F)F)c2nc3nncn3c3ccc(F)c(F)c23)ccn1)C(F)(F)F [Example 93, N-(2,2-difluoroethyl)-6,7-difluoro-N-(2-(4,4,4-trifluoro-3,3-dimethylbut-1-yn-1-yl)pyridin-4-yl)-[1,2,4]triazolo[4,3-a]quinazolin-5-amine]	8.14 nM	2.63 nM
CC1(C#Cc2cc(N(CC(F)F)c3nc4nncn4c4ccc(F)c(F)c34)ccn2)CC1 [Example 94, N-(2,2-difluoroethyl)-6,7-difluoro-N-(2-((1-methylcyclopropyl)ethynyl)pyridin-4-yl)-[1,2,4]triazolo[4,3-a]quinazolin-5-amine]	4.3 nM	2.33 nM
Fc1ccc2c(c(N(CC(F)F)c3ccnc(C#CC4(C(F)(F)F)CC4)c3)nc3nncn32)c1F [Example 95, N-(2,2-difluoroethyl)-6,7-difluoro-N-(2-((1-(trifluoromethyl)cyclopropyl)ethynyl)pyridin-4-yl)-[1,2,4]triazolo[4,3-a]quinazolin-5-amine]	7.69 nM	2.77 nM
Cc1nnc2nc(N(CC(F)F)c3ccnc(C#CC4(C)CC4)c3)c3cc(F)ccc3n12 [Example 96, N-(2,2-difluoroethyl)-7-fluoro-1-methyl-N-(2-((1-methylcyclopropyl)ethynyl)pyridin-4-yl)-[1,2,4]triazolo[4,3-a]quinazolin-5-amine]	6.22 nM	5.1 nM
CC(C)(C#Cc1nccc(N(CC(F)F)c2nc3nncn3c3ccc(F)cc23)c1F)C(F)(F)F [Example 97, N-(2,2-difluoroethyl)-7-fluoro-N-(3-fluoro-2-(4,4,4-trifluoro-3,3-dimethylbut-1-yn-1-yl)pyridin-4-yl)-[1,2,4]triazolo[4,3-a]quinazolin-5-amine]	18 nM	3.9 nM
COCCN(c1cc(F)cc(C#CC2(C(F)(F)F)CC2)c1)c1nc2nncn2c2cccc(F)c12 [Example 98, 6-fluoro-N-(3-fluoro-5-((1-(trifluoromethyl)cyclopropyl)ethynyl)phenyl)-N-(2-methoxyethyl)-[1,2,4]triazolo[4,3-a]quinazolin-5-amine]	84.7 nM	18.8 nM
CC1(C#Cc2cncc3c2CCCN3c2nc3nncn3c3ccc(F)c(F)c23)CC1 [Example 99, 6,7-difluoro-5-(5-((1-methylcyclopropyl)ethynyl)-3,4-dihydro-1,7-naphthyridin-1(2H)-yl)-[1,2,4]triazolo[4,3-a]quinazoline]	7.4 nM	0.483 nM
CC(C)(C#Cc1cncc2c1CCCN2c1nc2nncn2c2ccc(F)c(F)c12)C(F)(F)F [Example 100, 6,7-difluoro-5-(5-(4,4,4-trifluoro-3,3-dimethylbut-1-yn-1-yl)-3,4-dihydro-1,7-naphthyridin-1(2H)-yl)-[1,2,4]triazolo[4,3-a]quinazoline]	6.22 nM	0.122 nM
CC(C)(C)C#Cc1cc(N(CC(F)F)c2nc3nncn3c3ccc(F)cc23)ccn1 [Example 101, N-(2,2-difluoroethyl)-N-(2-(3,3-dimethylbut-1-yn-1-yl)pyridin-4-yl)-7-fluoro-[1,2,4]triazolo[4,3-a]quinazolin-5-amine]	5.56 nM	4.69 nM
